Data published in patent EP0908457B1, “3-(1,2-benzisothiazol- and isoxazol-5-Y1)-2,4(1H,3H)-pyrimidinedione or thione and 3-(1,2-benzisothiazol- and isoxazol-5-y1)-4(3H)-pyrimidinone or thione herbicidal agents” (BASF AKTIENGESELLSCHAFT, priority 1997, dated 1999).

Experiments:
[1] = system: Monochoria vaginalis, Presl.; test: Preemergence weed control under flooded paddy conditions, MOOVA (Monochoria); assay type: in vivo; conditions: preemergence, flooded paddy, rated 3-4 weeks after treatment
[2] = system: Cyperus iria; test: Preemergence weed control under flooded paddy conditions, CYPIR (Rice Flatsedge); assay type: in vivo; conditions: preemergence, flooded paddy, rated 3-4 weeks after treatment
[3] = system: Sagittaria pygmaea, L.; test: Preemergence weed control under flooded paddy conditions, SAGPY (Arrowhead (Pygmaea)); assay type: in vivo; conditions: preemergence, flooded paddy, rated 3-4 weeks after treatment
[4] = system: Oryza sativa, (L.) Tebonnet; test: Rice tolerance to post-transplant applications under flooded paddy conditions (Example 187), ORYSAT (Rice, Tebonnet); conditions: rated 3-4 weeks after treatment
[5] = system: Cyperus serotinus, Rottb.; test: Preemergence weed control under flooded paddy conditions, CYPSE (Flatsedge); assay type: in vivo; conditions: preemergence, rated 3-4 weeks after treatment
[6] = system: Echinochloa oryzoides (Ard.) Fritsch.; test: Preemergence weed control under flooded paddy conditions, ECHORC (Watergrass (Calif.)); assay type: in vivo; conditions: preemergence, flooded paddy, rated 3-4 weeks after treatment
Also: meaning of each grade not given here.

With `CSCCCCOC(=O)COc1ccc(C)cc1-c1nsc2ccc(-n3c(=O)cc(C(F)(F)F)n(C)c3=O)cc12` [Example 518, Acetic acid, {{2-{5-[3,6-dihydro-3-methyl-2,6-dioxo-4-(trifluoromethyl)-1(2H)-pyrimidinyl]-1,2-benzisothiazol-3-yl}-p-tolyl}oxy}-, 4-(methylthio)butyl ester] the “herbicidal effect rating, MOOVA” value ([1]; Rate 0.0320 kg/ha) was 4.0, the “herbicidal effect rating, MOOVA” value ([1]; Rate 0.0620 kg/ha) was 7.0 and the “herbicidal effect rating, MOOVA” value ([1]; Rate 0.1250 kg/ha) was 9.0. The “herbicidal effect rating, MOOVA” value ([1]; Rate 0.2500 kg/ha) was 9.0, the “herbicidal effect rating, CYPIR” value ([2]; Rate 0.0320 kg/ha) was 0.0 and the “herbicidal effect rating, CYPIR” value ([2]; Rate 0.0620 kg/ha) was 2.0. The “herbicidal effect rating, CYPIR” value ([2]; Rate 0.1250 kg/ha) was 2.0, the “herbicidal effect rating, CYPIR” value ([2]; Rate 0.2500 kg/ha) was 4.0 and the “herbicidal effect rating, SAGPY” value ([3]; Rate 0.0320 kg/ha) was 0.0. For the same compound, the “herbicidal effect rating, SAGPY” value ([3]; Rate 0.0620 kg/ha) was 0.0, the “herbicidal effect rating, SAGPY” value ([3]; Rate 0.1250 kg/ha) was 0.0 and the “herbicidal effect rating, SAGPY” value ([3]; Rate 0.2500 kg/ha) was 0.0. For the same compound, the “herbicidal effect rating ORYSAT” value ([4]; Rate 0.0320 kg/ha) was 1.0, the “herbicidal effect rating ORYSAT” value ([4]; Rate 0.0620 kg/ha) was 2.0 and the “herbicidal effect rating ORYSAT” value ([4]; Rate 0.1250 kg/ha) was 4.0. The “herbicidal effect rating ORYSAT” value ([4]; Rate 0.2500 kg/ha) was 4.0, the “herbicidal effect rating, CYPSE” value ([5]; Rate 0.0320 kg/ha) was 0.0 and the “herbicidal effect rating, CYPSE” value ([5]; Rate 0.0620 kg/ha) was 0.0. For the same compound, the “herbicidal effect rating, CYPSE” value ([5]; Rate 0.1250 kg/ha) was 0.0, the “herbicidal effect rating, CYPSE” value ([5]; Rate 0.2500 kg/ha) was 0.0 and the “herbicidal effect rating, ECHORC” value ([6]; Rate 0.0320 kg/ha) was 0.0. For the same compound, the “herbicidal effect rating, ECHORC” value ([6]; Rate 0.0620 kg/ha) was 2.0, the “herbicidal effect rating, ECHORC” value ([6]; Rate 0.1250 kg/ha) was 4.0 and the “herbicidal effect rating, ECHORC” value ([6]; Rate 0.2500 kg/ha) was 7.0.

With `CCCCCCCCCOC(=O)COc1ccc(C)cc1-c1nsc2ccc(-n3c(=O)cc(C(F)(F)F)n(C)c3=O)cc12` [Example 519, Acetic acid, {{2-{5-[3,6-dihydro-3-methyl-2,6-dioxo-4-(trifluoromethyl)-1(2H)-pyrimidinyl]-1,2-benzisothiazol-3-yl}-p-tolyl}oxy}-, nonyl ester] the “herbicidal effect rating, MOOVA” value ([1]; Rate 0.0320 kg/ha) was 9.0, the “herbicidal effect rating, MOOVA” value ([1]; Rate 0.0620 kg/ha) was 9.0 and the “herbicidal effect rating, MOOVA” value ([1]; Rate 0.1250 kg/ha) was 9.0. For the same compound, the “herbicidal effect rating, MOOVA” value ([1]; Rate 0.2500 kg/ha) was 9.0, the “herbicidal effect rating, CYPIR” value ([2]; Rate 0.0320 kg/ha) was 0.0 and the “herbicidal effect rating, CYPIR” value ([2]; Rate 0.0620 kg/ha) was 0.0. The “herbicidal effect rating, CYPIR” value ([2]; Rate 0.1250 kg/ha) was 2.0, the “herbicidal effect rating, CYPIR” value ([2]; Rate 0.2500 kg/ha) was 6.0 and the “herbicidal effect rating, SAGPY” value ([3]; Rate 0.0320 kg/ha) was 0.0. The “herbicidal effect rating, SAGPY” value ([3]; Rate 0.0620 kg/ha) was 0.0, the “herbicidal effect rating, SAGPY” value ([3]; Rate 0.1250 kg/ha) was 0.0 and the “herbicidal effect rating, SAGPY” value ([3]; Rate 0.2500 kg/ha) was 0.0. The “herbicidal effect rating ORYSAT” value ([4]; Rate 0.0320 kg/ha) was 2.0, the “herbicidal effect rating ORYSAT” value ([4]; Rate 0.0620 kg/ha) was 4.0 and the “herbicidal effect rating ORYSAT” value ([4]; Rate 0.1250 kg/ha) was 4.5. The “herbicidal effect rating ORYSAT” value ([4]; Rate 0.2500 kg/ha) was 4.0, the “herbicidal effect rating, CYPSE” value ([5]; Rate 0.0320 kg/ha) was 0.0 and the “herbicidal effect rating, CYPSE” value ([5]; Rate 0.0620 kg/ha) was 0.0. The “herbicidal effect rating, CYPSE” value ([5]; Rate 0.1250 kg/ha) was 0.0, the “herbicidal effect rating, CYPSE” value ([5]; Rate 0.2500 kg/ha) was 0.0 and the “herbicidal effect rating, ECHORC” value ([6]; Rate 0.0320 kg/ha) was 2.0. The “herbicidal effect rating, ECHORC” value ([6]; Rate 0.0620 kg/ha) was 4.0, the “herbicidal effect rating, ECHORC” value ([6]; Rate 0.1250 kg/ha) was 6.5 and the “herbicidal effect rating, ECHORC” value ([6]; Rate 0.2500 kg/ha) was 9.0.

For `C=CC(CCCC)OC(=O)COc1ccc(C)cc1-c1nsc2ccc(-n3c(=O)cc(C(F)(F)F)n(C)c3=O)cc12` (stereo not drawn) [Example 520, Acetic acid, {{2-{5-[3,6-dihydro-3-methyl-2,6-dioxo-4-(trifluoromethyl)-1(2H)-pyrimidinyl]-1,2-benzisothiazol-3-yl}-p-tolyl}oxy}-, 1-vinylpentyl ester], the “herbicidal effect rating, MOOVA” value ([1]; Rate 0.0320 kg/ha) was 9.0, the “herbicidal effect rating, MOOVA” value ([1]; Rate 0.0620 kg/ha) was 9.0 and the “herbicidal effect rating, MOOVA” value ([1]; Rate 0.1250 kg/ha) was 9.0. For the same compound, the “herbicidal effect rating, MOOVA” value ([1]; Rate 0.2500 kg/ha) was 9.0, the “herbicidal effect rating, CYPIR” value ([2]; Rate 0.0320 kg/ha) was 0.0 and the “herbicidal effect rating, CYPIR” value ([2]; Rate 0.0620 kg/ha) was 0.0. The “herbicidal effect rating, CYPIR” value ([2]; Rate 0.1250 kg/ha) was 2.0, the “herbicidal effect rating, CYPIR” value ([2]; Rate 0.2500 kg/ha) was 4.0 and the “herbicidal effect rating, SAGPY” value ([3]; Rate 0.0320 kg/ha) was 0.0. For the same compound, the “herbicidal effect rating, SAGPY” value ([3]; Rate 0.0620 kg/ha) was 0.0, the “herbicidal effect rating, SAGPY” value ([3]; Rate 0.1250 kg/ha) was 0.0 and the “herbicidal effect rating, SAGPY” value ([3]; Rate 0.2500 kg/ha) was 0.0. The “herbicidal effect rating ORYSAT” value ([4]; Rate 0.0320 kg/ha) was 2.0, the “herbicidal effect rating ORYSAT” value ([4]; Rate 0.0620 kg/ha) was 3.5 and the “herbicidal effect rating ORYSAT” value ([4]; Rate 0.1250 kg/ha) was 4.5. For the same compound, the “herbicidal effect rating ORYSAT” value ([4]; Rate 0.2500 kg/ha) was 3.0, the “herbicidal effect rating, CYPSE” value ([5]; Rate 0.0320 kg/ha) was 0.0 and the “herbicidal effect rating, CYPSE” value ([5]; Rate 0.0620 kg/ha) was 0.0. For the same compound, the “herbicidal effect rating, CYPSE” value ([5]; Rate 0.1250 kg/ha) was 0.0, the “herbicidal effect rating, CYPSE” value ([5]; Rate 0.2500 kg/ha) was 0.0 and the “herbicidal effect rating, ECHORC” value ([6]; Rate 0.0320 kg/ha) was 6.5. The “herbicidal effect rating, ECHORC” value ([6]; Rate 0.0620 kg/ha) was 8.0, the “herbicidal effect rating, ECHORC” value ([6]; Rate 0.1250 kg/ha) was 8.5 and the “herbicidal effect rating, ECHORC” value ([6]; Rate 0.2500 kg/ha) was 9.0.

In the case of `C=CCOCC(CC)(COCC=C)COC(=O)COc1ccc(C)cc1-c1nsc2ccc(-n3c(=O)cc(C(F)(F)F)n(C)c3=O)cc12` [Example 521, Acetic acid, {{2-{5-[3,6-dihydro-3-methyl-2,6-dioxo-4-(trifluoromethyl)-1(2H)-pyrimidinyl]-1,2-benzisothiazol-3-yl}-p-tolyl}oxy}-, 2,2-bis-[(allyloxy)methyl]butyl ester], the “herbicidal effect rating, MOOVA” value ([1]; Rate 0.0320 kg/ha) is reported as 6.0, the “herbicidal effect rating, MOOVA” value ([1]; Rate 0.0620 kg/ha) is reported as 9.0 and the “herbicidal effect rating, MOOVA” value ([1]; Rate 0.1250 kg/ha) is reported as 9.0. For the same compound, the “herbicidal effect rating, MOOVA” value ([1]; Rate 0.2500 kg/ha) was 9.0, the “herbicidal effect rating, CYPIR” value ([2]; Rate 0.0320 kg/ha) was 0.0 and the “herbicidal effect rating, CYPIR” value ([2]; Rate 0.0620 kg/ha) was 0.0. For the same compound, the “herbicidal effect rating, CYPIR” value ([2]; Rate 0.1250 kg/ha) was 0.0, the “herbicidal effect rating, CYPIR” value ([2]; Rate 0.2500 kg/ha) was 2.0 and the “herbicidal effect rating, SAGPY” value ([3]; Rate 0.0320 kg/ha) was 0.0. For the same compound, the “herbicidal effect rating, SAGPY” value ([3]; Rate 0.0620 kg/ha) was 0.0, the “herbicidal effect rating, SAGPY” value ([3]; Rate 0.1250 kg/ha) was 0.0 and the “herbicidal effect rating, SAGPY” value ([3]; Rate 0.2500 kg/ha) was 0.0. The “herbicidal effect rating ORYSAT” value ([4]; Rate 0.0320 kg/ha) was 0.0, the “herbicidal effect rating ORYSAT” value ([4]; Rate 0.0620 kg/ha) was 0.0 and the “herbicidal effect rating ORYSAT” value ([4]; Rate 0.1250 kg/ha) was 0.0. For the same compound, the “herbicidal effect rating ORYSAT” value ([4]; Rate 0.2500 kg/ha) was 0.0, the “herbicidal effect rating, CYPSE” value ([5]; Rate 0.0320 kg/ha) was 0.0 and the “herbicidal effect rating, CYPSE” value ([5]; Rate 0.0620 kg/ha) was 0.0. The “herbicidal effect rating, CYPSE” value ([5]; Rate 0.1250 kg/ha) was 0.0, the “herbicidal effect rating, CYPSE” value ([5]; Rate 0.2500 kg/ha) was 0.0 and the “herbicidal effect rating, ECHORC” value ([6]; Rate 0.0320 kg/ha) was 2.0. For the same compound, the “herbicidal effect rating, ECHORC” value ([6]; Rate 0.0620 kg/ha) was 2.0, the “herbicidal effect rating, ECHORC” value ([6]; Rate 0.1250 kg/ha) was 4.0 and the “herbicidal effect rating, ECHORC” value ([6]; Rate 0.2500 kg/ha) was 4.0.
